Experimental data taken from US20190216761A1, “COMPOSITIONS COMPRISING 15-HEPE AND METHODS OF USING THE SAME” (Afimmune Limited, priority 2015, published 2019).
Marks after values point to notes of the source that are not given here.

Tests used:
Type in all cases: cell-based
hPPARδ [1] = molecular target: T1, hPPARδ (Homo sapiens, UniProt Q03181); test: PPAR agonist reporter assay (Gal4 hybrid receptor, luciferase)
T1 construct: expressed in transfected cells
T1 sequence (Q03181 211-439 limits assumed): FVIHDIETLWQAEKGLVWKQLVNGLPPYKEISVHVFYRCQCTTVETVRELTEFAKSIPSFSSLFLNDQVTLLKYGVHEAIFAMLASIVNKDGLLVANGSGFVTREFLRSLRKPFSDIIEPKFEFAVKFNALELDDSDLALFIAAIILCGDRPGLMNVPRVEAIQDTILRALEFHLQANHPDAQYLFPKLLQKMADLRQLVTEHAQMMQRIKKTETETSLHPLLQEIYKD
Experimental: (§1) This study utilized proprietary reporter cells expressing a hybrid receptor comprising the N-terminal Gal4 DNA binding domain fused to the ligand binding domain of the specific human nuclear receptor (hPPARα, hPPARδ, and hPPARγ) and rat nuclear receptor (rPPARα, rPPARδ, and rPPARγ). The reporter vectors used in this Example comprise the firefly luciferase gene functionally linked to the Gal4 upstream activation sequence.
(§2) Nuclear Receptor assay was performed by dispensing 100 μL of a suspension of Reporter Cells in Cell Recovery Medium (CRM) containing 10% charcoal stripped FBS into each well of a white 96-well plate. Test compounds were diluted using compound screening medium (CSM) containing 10% charcoal stripped FBS to generate “2×-concentration” treatment media. Immediately after this dilution step, 100 μL of each diluted 2×-concentration treatment medium was dispensed (in triplicate) into the Reporter Cell-containing assay wells.
(§3) After incubation at 37° C. for 24 hours, the treatment media was discarded. 100 μL of Luciferase Detection Reagent substrate was added to each well and RLUs were quantified from each well to determine nuclear receptor activities.

rPPARα [2] = molecular target: T2, rPPARα (Rattus norvegicus, UniProt P37230); test: as above
T2 construct: expressed in transfected cells
T2 sequence (P37230 239-466 limits assumed): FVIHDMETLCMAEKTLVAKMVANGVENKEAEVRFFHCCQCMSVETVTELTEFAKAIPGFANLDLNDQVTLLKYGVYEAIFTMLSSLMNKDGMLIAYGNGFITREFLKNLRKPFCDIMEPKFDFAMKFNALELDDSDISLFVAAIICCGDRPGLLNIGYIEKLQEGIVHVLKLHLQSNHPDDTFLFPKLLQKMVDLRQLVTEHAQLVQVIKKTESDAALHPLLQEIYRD
Experimental: as §1, §2, §3

hPPARα [3] = molecular target: T3, hPPARα (Homo sapiens, UniProt Q07869); test: as above
T3 construct: expressed in transfected cells
T3 sequence (Q07869 239-466 limits assumed): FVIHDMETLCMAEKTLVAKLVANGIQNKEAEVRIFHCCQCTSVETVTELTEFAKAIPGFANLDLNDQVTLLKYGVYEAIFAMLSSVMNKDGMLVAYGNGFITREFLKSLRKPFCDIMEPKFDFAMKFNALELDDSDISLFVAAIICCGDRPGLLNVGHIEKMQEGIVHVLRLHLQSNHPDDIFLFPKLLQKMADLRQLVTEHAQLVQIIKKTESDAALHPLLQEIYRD
Experimental: as §1, §2, §3

hPPARδ [4] = molecular target: T1, hPPARδ; test: PPAR antagonist reporter assay (reference agonist at EC80)
Experimental: as §1
(§4) Nuclear Receptor assay was performed by suspending Reporter Cells in CRM containing 10% charcoal stripped FBS. 2×-EC80 concentrations of the appropriate reference agonist were then added to the Reporter Cell suspension, and 100 μL of the mixture dispensed into wells of a white 96-well plate. Test compounds were diluted using compound screening medium (CSM) containing 10% charcoal stripped FBS to generate “2×-concentration” treatment media. Immediately after this dilution step, 100 μL of each diluted 2×-concentration treatment medium was dispensed (in triplicate) into the Reporter Cell-containing assay wells.
(§5) After incubation at 37° C. for 24 hours, the treatment media was discarded. Each well was rinsed once with LCM Buffer; LCM substrate was then added. After incubation for 30 minutes at 37° C., fluorescence was measured to determine the relative number of live cells per assay well. LCM substrate was then discarded and 100 μL of Luciferase Detection Reagent substrate was added to each well. RLUs were quantified from each well to determine nuclear receptor activities.

rPPARα [5] = molecular target: T2, rPPARα; test: as above
Experimental: as §1, §4, §5

hPPARα [6] = molecular target: T3, hPPARα; test: as above
Experimental: as §1, §4, §5

hPPARγ = molecular target: T4, hPPARγ (Homo sapiens, UniProt P37231); test: as above
T4 construct: expressed in transfected cells
T4 sequence (P37231 238-503 limits assumed): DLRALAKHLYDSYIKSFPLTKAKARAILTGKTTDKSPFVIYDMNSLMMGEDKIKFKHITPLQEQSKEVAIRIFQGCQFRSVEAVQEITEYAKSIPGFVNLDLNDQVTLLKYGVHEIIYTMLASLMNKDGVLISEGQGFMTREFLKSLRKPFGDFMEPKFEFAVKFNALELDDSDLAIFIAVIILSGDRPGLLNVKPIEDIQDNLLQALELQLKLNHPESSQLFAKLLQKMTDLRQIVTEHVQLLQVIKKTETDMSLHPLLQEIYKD
Experimental: as §1, §4, §5

[7] = at low to higher doses in the dose response curve

CC/C=C\C[C@H](O)/C=C/C=C\C/C=C\C/C=C\CCCC(=O)OCC [15-HEPE-EE, 15-HEPE ethyl ester]
Fold-Activation (vs. 0.10% DMSO) hPPAR-δ (hPPARδ [1]; 137 nM): 1.4 fold | Fold-Activation (vs. 0.10% DMSO) hPPAR-δ (hPPARδ [1]; 412 nM): 2.1* fold | Fold-Activation (vs. 0.10% DMSO) hPPAR-δ (hPPARδ [1]; 1,235 nM): 2.1* fold | Fold-Activation (vs. 0.10% DMSO) hPPAR-δ (hPPARδ [1]; 3,704 nM): 2.4* fold | Fold-Activation (vs. 0.10% DMSO) hPPAR-δ (hPPARδ [1]; 11,111 nM): 5.6* fold | Fold-Activation (vs. 0.10% DMSO) hPPAR-δ (hPPARδ [1]; 33,333 nM): 4.1* fold | Fold-Activation (vs. 0.10% DMSO) hPPAR-δ (hPPARδ [1]; 100,000 nM): 8.0* fold | Fold-Activation (vs. 0.10% DMSO) hPPAR-δ (hPPARδ [1]; 300,000 nM): 0.073 fold | agonism activity against human PPARδ (in words) (hPPARδ [1]; [7]): moderate agonism activity | Fold-Activation (vs. 0.10% DMSO) rPPAR-α (rPPARα [2]; 137 nM): 1.1 fold | Fold-Activation (vs. 0.10% DMSO) rPPAR-α (rPPARα [2]; 412 nM): 1.2 fold | Fold-Activation (vs. 0.10% DMSO) rPPAR-α (rPPARα [2]; 1,235 nM): 1.2 fold | Fold-Activation (vs. 0.10% DMSO) rPPAR-α (rPPARα [2]; 3,704 nM): 1.4 fold | Fold-Activation (vs. 0.10% DMSO) rPPAR-α (rPPARα [2]; 11,111 nM): 1.7 fold | Fold-Activation (vs. 0.10% DMSO) rPPAR-α (rPPARα [2]; 33,333 nM): 2.6* fold | Fold-Activation (vs. 0.10% DMSO) rPPAR-α (rPPARα [2]; 100,000 nM): 1.4 fold | Fold-Activation (vs. 0.10% DMSO) rPPAR-α (rPPARα [2]; 300,000 nM): 0.068 fold | agonism activity against rat PPARα (in words) (rPPARα [2]; at medium to higher doses in the dose response curve): mild to moderate agonism activity | Fold-Activation (vs. 0.10% DMSO) hPPAR-α (hPPARα [3]; 137 nM): 0.90 fold | Fold-Activation (vs. 0.10% DMSO) hPPAR-α (hPPARα [3]; 412 nM): 1.1 fold | Fold-Activation (vs. 0.10% DMSO) hPPAR-α (hPPARα [3]; 1,235 nM): 1.1 fold | Fold-Activation (vs. 0.10% DMSO) hPPAR-α (hPPARα [3]; 3,704 nM): 2.1* fold | Fold-Activation (vs. 0.10% DMSO) hPPAR-α (hPPARα [3]; 11,111 nM): 4.2* fold | Fold-Activation (vs. 0.10% DMSO) hPPAR-α (hPPARα [3]; 33,333 nM): 6.8* fold | Fold-Activation (vs. 0.10% DMSO) hPPAR-α (hPPARα [3]; 100,000 nM): 5.0* fold | Fold-Activation (vs. 0.10% DMSO) hPPAR-α (hPPARα [3]; 300,000 nM): 0.98 fold | agonism activity against human PPARα (in words) (hPPARα [3]; [7]): moderate agonism activity | % Inhibition of agonist-stimulated receptor activity vs. 0.10% DMSO, hPPAR-δ (hPPARδ [4]; 137 nM): 0.68% | % Inhibition of agonist-stimulated receptor activity vs. 0.10% DMSO, hPPAR-δ (hPPARδ [4]; 412 nM): −7.7% | % Inhibition of agonist-stimulated receptor activity vs. 0.10% DMSO, hPPAR-δ (hPPARδ [4]; 1,235 nM): −11% | % Inhibition of agonist-stimulated receptor activity vs. 0.10% DMSO, hPPAR-δ (hPPARδ [4]; 3,704 nM): −10% | % Inhibition of agonist-stimulated receptor activity vs. 0.10% DMSO, hPPAR-δ (hPPARδ [4]; 11,111 nM): −10% | % Inhibition of agonist-stimulated receptor activity vs. 0.10% DMSO, hPPAR-δ (hPPARδ [4]; 33,333 nM): 1.6% | % Inhibition of agonist-stimulated receptor activity vs. 0.10% DMSO, hPPAR-δ (hPPARδ [4]; 100,000 nM): 29% | % Inhibition of agonist-stimulated receptor activity vs. 0.10% DMSO, hPPAR-δ (hPPARδ [4]; 300,000 nM): 100% | inhibition of human PPARs (in words), hPPARδ (hPPARδ [4]; at higher test concentrations): apparent inhibition | % Inhibition of agonist-stimulated receptor activity vs. 0.10% DMSO, rPPAR-α (rPPARα [5]; 137 nM): 42% | % Inhibition of agonist-stimulated receptor activity vs. 0.10% DMSO, rPPAR-α (rPPARα [5]; 412 nM): 26% | % Inhibition of agonist-stimulated receptor activity vs. 0.10% DMSO, rPPAR-α (rPPARα [5]; 1,235 nM): 25% | % Inhibition of agonist-stimulated receptor activity vs. 0.10% DMSO, rPPAR-α (rPPARα [5]; 3,704 nM): 21% | % Inhibition of agonist-stimulated receptor activity vs. 0.10% DMSO, rPPAR-α (rPPARα [5]; 11,111 nM): 21% | % Inhibition of agonist-stimulated receptor activity vs. 0.10% DMSO, rPPAR-α (rPPARα [5]; 33,333 nM): 38% | % Inhibition of agonist-stimulated receptor activity vs. 0.10% DMSO, rPPAR-α (rPPARα [5]; 100,000 nM): 79% | % Inhibition of agonist-stimulated receptor activity vs. 0.10% DMSO, rPPAR-α (rPPARα [5]; 300,000 nM): 100% | inhibition of rat PPARs (in words), rPPARα (rPPARα [5]; at higher test concentrations): apparent inhibition | % Inhibition of agonist-stimulated receptor activity vs. 0.10% DMSO, hPPAR-α (hPPARα [6]; 137 nM): 49% | % Inhibition of agonist-stimulated receptor activity vs. 0.10% DMSO, hPPAR-α (hPPARα [6]; 412 nM): 21% | % Inhibition of agonist-stimulated receptor activity vs. 0.10% DMSO, hPPAR-α (hPPARα [6]; 1,235 nM): 13% | % Inhibition of agonist-stimulated receptor activity vs. 0.10% DMSO, hPPAR-α (hPPARα [6]; 3,704 nM): 14% | % Inhibition of agonist-stimulated receptor activity vs. 0.10% DMSO, hPPAR-α (hPPARα [6]; 11,111 nM): 14% | % Inhibition of agonist-stimulated receptor activity vs. 0.10% DMSO, hPPAR-α (hPPARα [6]; 33,333 nM): 26% | % Inhibition of agonist-stimulated receptor activity vs. 0.10% DMSO, hPPAR-α (hPPARα [6]; 100,000 nM): 40% | % Inhibition of agonist-stimulated receptor activity vs. 0.10% DMSO, hPPAR-α (hPPARα [6]; 300,000 nM): 83% | inhibition of human PPARs (in words), hPPARα (hPPARα [6]; at higher test concentrations): apparent inhibition | % Inhibition of agonist-stimulated receptor activity vs. 0.10% DMSO, hPPAR-γ (hPPARγ; 137 nM): 17% | % Inhibition of agonist-stimulated receptor activity vs. 0.10% DMSO, hPPAR-γ (hPPARγ; 412 nM): 0.87% | % Inhibition of agonist-stimulated receptor activity vs. 0.10% DMSO, hPPAR-γ (hPPARγ; 1,235 nM): −1.4% | % Inhibition of agonist-stimulated receptor activity vs. 0.10% DMSO, hPPAR-γ (hPPARγ; 3,704 nM): −4.6% | % Inhibition of agonist-stimulated receptor activity vs. 0.10% DMSO, hPPAR-γ (hPPARγ; 11,111 nM): −0.42% | % Inhibition of agonist-stimulated receptor activity vs. 0.10% DMSO, hPPAR-γ (hPPARγ; 33,333 nM): 5.2% | % Inhibition of agonist-stimulated receptor activity vs. 0.10% DMSO, hPPAR-γ (hPPARγ; 100,000 nM): 44% | % Inhibition of agonist-stimulated receptor activity vs. 0.10% DMSO, hPPAR-γ (hPPARγ; 300,000 nM): 100% | inhibition of human PPARs (in words), hPPARγ (hPPARγ; at higher test concentrations): apparent inhibition
